Values quoted from earlier work in patent US20200039732A1, “DEVICES FOR DISPENSING A HYDROFLUOROOLEFIN VAPOCOOLANT COMPOSITION AS AN AEROSOL” (GEBAUER COMPANY, priority 2016, published 2020).
Where two headings read alike, the source gives them in different places.

Conditions: for Liquid Viscosity / Surface Tension: at 20° C.

| SMILES | Pvap (25° C.) | Pvap (80° C.) | Liquid Viscosity | Surface Tension |
| --- | --- | --- | --- | --- |
| FCC(F)(F)F [HFC-134a, 1,1,1,2-tetrafluoroethane] | 0.665 MPa | 2.63 MPa | 0.202 cP | 8.69 dyne/cm |
| CC(C)C [Iso-Butane, isobutane] | 0.319 MPa | 1.5 MPa | 0.156 cP | 10.3 dyne/cm |
| FC(F)CC(F)(F)F [HFC-245fa, 1,1,1,3,3-pentafluoropropane] | 0.124 MPa | 0.789 MPa | 0.402 cP | 13.6 dyne/cm |
| FC(F)(F)/C=C/Cl [HCFO-1233zd, trans-1-chloro-3,3,3-trifluoropropene] | 0.108 MPa | 0.650 MPa | 0.319 cP | 14.039 dyne/cm |
| F/C=C/C(F)(F)F [HFO-1234ze, trans-1,3,3,3-tetrafluoroprop-1-ene] | 0.484 MPa | 2.01 MPa | 0.489 cP | 13.3 dyne/cm |
| CCCl [Ethyl Chloride, chloroethane] | 0.135 MPa | 0.745 MPa | 0.279 cP | 19.5 dyne/cm |
